Source: US12612412B2, “Antiviral heterocyclic compounds” (Enanta Pharmaceuticals, Inc., priority 2021, dated 2026)

These molecules were tested on genotype A, "Long" strain RSV (assay: RSV-A assay (CPE protection in Hep-2 cells, ATPlite readout)). Details: human respiratory syncytial virus, genotype A “Long” strain RSV, MOI 0.1, CPE protection, read-out: Human RSV-A (“Long”).
Format: cell-based, Human respiratory syncytial virus (HRSV)
Outline: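 Compound effect on RSV-induced CPE: Hep-2 monolayers, MOI 0.1, duplicate 2-fold titrations, 5-day culture in 10% FBS DMEM. Readout is ATP-based luminescence, normalised to virus-only and no-virus controls, giving EC50.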

EC50 [µM]	Compound
> 0.2	C[C@]1(C(N)=O)COc2c1cc([C@@](O)(CNC(=O)c1ccc(C(F)F)nc1)C(F)(F)F)nc2-c1ccc(F)cc1 [Example 408]
> 0.2	C[C@]1(C(N)=O)COc2c1cc([C@@](O)(CNC(=O)c1cnc3cccnn13)C(F)(F)F)nc2-c1ccc(F)cc1 [Example 409]
> 0.2	Cc1cncnc1C(=O)NC[C@](O)(c1cc2c(c(-c3ccc(F)cc3)n1)OC[C@]2(C)C(N)=O)C(F)(F)F [Example 410]
> 0.2	Cn1ccc(C(=O)NC[C@](O)(c2cc3c(c(-c4ccc(F)cc4)n2)OC[C@]3(C)C(N)=O)C(F)(F)F)n1 [Example 411]
> 0.2	COc1ncc(F)cc1C(=O)NC[C@](O)(c1cc2c(c(-c3ccc(F)cc3)n1)OC[C@]2(C)C(N)=O)C(F)(F)F [Example 412]
> 0.2	C[C@]1(C(N)=O)COc2c1cc([C@@](O)(CNC(=O)c1cn3ccccc3n1)C(F)(F)F)nc2-c1ccc(F)cc1 [Example 413]
> 0.2	C[C@]1(C(N)=O)COc2c1cc([C@@](O)(CNC(=O)c1cc(Cl)cc3[nH]ncc13)C(F)(F)F)nc2-c1ccc(F)cc1 [Example 414]
> 0.2	C[C@]1(C(N)=O)COc2c1cc([C@@](O)(CNC(=O)c1cccc3[nH]ccc13)C(F)(F)F)nc2-c1ccc(F)cc1 [Example 415]
> 0.2	Cc1ccnnc1C(=O)NC[C@](O)(c1cc2c(c(-c3ccc(F)cc3)n1)OC[C@]2(C)C(N)=O)C(F)(F)F [Example 416]
> 0.2	C[C@]1(C(N)=O)COc2c1cc([C@@](O)(CNC(=O)c1ccc3nccn3n1)C(F)(F)F)nc2-c1ccc(F)cc1 [Example 417]
< 0.2	C[C@]1(C(N)=O)COc2c1cc([C@@](O)(CNC(=O)c1ccc3ccnn3c1)C(F)(F)F)nc2-c1ccc(F)cc1 [Example 418]
> 0.2	C[C@]1(C(N)=O)COc2c1cc([C@@](O)(CNC(=O)c1sc3ccccc3c1Cl)C(F)(F)F)nc2-c1ccc(F)cc1 [Example 419]
> 0.2	C[C@]1(C(N)=O)COc2c1cc([C@@](O)(CNC(=O)c1nc3ccccc3[nH]1)C(F)(F)F)nc2-c1ccc(F)cc1 [Example 420]
> 0.2	C[C@]1(C(N)=O)COc2c1cc([C@@](O)(CNC(=O)c1ccccn1)C(F)(F)F)nc2-c1ccc(F)cc1 [Example 421]
> 0.2	C[C@]1(C(N)=O)COc2c1cc([C@@](O)(CNC(=O)c1cc3cc(F)ccc3[nH]1)C(F)(F)F)nc2-c1ccc(F)cc1 [Example 422]
> 0.2	COc1ccc(C(=O)NC[C@](O)(c2cc3c(c(-c4ccc(F)cc4)n2)OC[C@]3(C)C(N)=O)C(F)(F)F)cc1C [Example 423]
> 0.2	Cn1nc2ccccc2c1C(=O)NC[C@](O)(c1cc2c(c(-c3ccc(F)cc3)n1)OC[C@]2(C)C(N)=O)C(F)(F)F [Example 424]
> 0.2	Cn1cccc1C(=O)NC[C@](O)(c1cc2c(c(-c3ccc(F)cc3)n1)OC[C@]2(C)C(N)=O)C(F)(F)F [Example 425]
> 0.2	C[C@]1(C(N)=O)COc2c1cc([C@@](O)(CNC(=O)c1ncc[nH]1)C(F)(F)F)nc2-c1ccc(F)cc1 [Example 426]
> 0.2	COc1cccc(C(=O)NC[C@](O)(c2cc3c(c(-c4ccc(F)cc4)n2)OC[C@]3(C)C(N)=O)C(F)(F)F)c1F [Example 427]
> 0.2	COc1ncccc1C(=O)NC[C@](O)(c1cc2c(c(-c3ccc(F)cc3)n1)OC[C@]2(C)C(N)=O)C(F)(F)F [Example 428]
> 0.2	C[C@]1(C(N)=O)COc2c1cc([C@@](O)(CNC(=O)c1cccc3[nH]cnc13)C(F)(F)F)nc2-c1ccc(F)cc1 [Example 429]
> 0.2	COc1cccc2oc(C(=O)NC[C@](O)(c3cc4c(c(-c5ccc(F)cc5)n3)OC[C@]4(C)C(N)=O)C(F)(F)F)cc12 [Example 430]
> 0.2	Cc1ncc(C(=O)NC[C@](O)(c2cc3c(c(-c4ccc(F)cc4)n2)OC[C@]3(C)C(N)=O)C(F)(F)F)s1 [Example 431]
> 0.2	Cc1cc(C(=O)NC[C@](O)(c2cc3c(c(-c4ccc(F)cc4)n2)OC[C@]3(C)C(N)=O)C(F)(F)F)c2ccccc2n1 [Example 432]
